Reference: article PMC5931996 (Scientific Reports, 2018)

How the values were obtained:
[1] = tested on: 5-HTP-induced head twitches in rats; assay: 5-HTP-induced head twitch; format: in vivo, SD rats; details: mean ± S.E.M.
Procedure: SD rats (200–250 g, 8 animals/ group) were housed in the test room for at least 1 h before the experiment. […] Then, all animals were intraperitoneally injected with 0.9% saline or 5-HTP (320 mg/kg) 40 min before the test. The number of head twitches was recorded during a period of 40–70 min after intraperitoneal injection.

[2] = tested on: MK-801-induced locomotor hyperactivity in rats; assay: Inhibition of MK-801-induced hyperactivity; format: in vivo, SD rats; details: mean ± S.E.M.
Procedure: […]. […] Animals were returned to the activity chambers after the intraperitoneal injection, and locomotor activity as quantitated as the distance travelled (mm) was recorded for 10 to 20 minutes using the TopScan monitoring system. At the end of each trial, the faecal boli were cleaned to avoid the potential influence of intramaze cues (odour trails, etc.) on the rats[36].

[3] = tested on: MK-801-treated rats; assay: Morris water maze test, acute administration, MK-801-treated rats; format: in vivo, SD rats; details: mean ± S.E.M.
Procedure: SD rats (200–250 g, 8 animals/ group) were trained continuously until all rats found the platform within 30 sec, and the training time depended on the training results. […]. Then, all animals were intraperitoneal injections of 0.9% saline or MK-801 (0.2 mg/kg, i.p.) 30 minutes before the test. The test was started and the escape latency of rats was measured during the test in which platform was not withdrawn. A trial was deemed complete as soon as the rat had located platform or when 60 s had elapsed, whichever occurred first. The swimming activity of each rat was monitored by TopScan monitoring system. At the end of each trial, the maze was cleaned. The maze was rotated by clockwise after each training day to avoid potential intramaze cues (odour trails, etc.)[38].

[4] = tested on: MK-801-treated rats; assay: Morris water maze test, subchronic administration, MK-801-treated rats; format: in vivo, SD rats
Procedure: The MWM test was started after the last injection. Each rat was trained in 4 trials per day for 5 consecutive days. The escape latency to find the submerged escape platform in the water maze was recorded with the TopScan monitoring system. Each training session lasted for a maximum of 60 s. If the escape latency exceeded 60 s, it was recorded as 60 s and the rat was manually guided to the platform. On day 6, the platform was removed and each rat was allowed to swim freely for 60 s.

[5] = tested on: MK-801-induced NOR deficit in rats; assay: Novel object recognition (NOR) test; details: MK-801 0.3 mg/kg i.p. day 15–28 with vehicle (model group)
Procedure: Rats were testing after the last administration. Following a 10-min habituation session on the day of testing, each rat was placed in the NOR chamber (grey PVC boxes 60*60 cm wide and 45 cm deep) and exposed to two identical objects (Left and Right) for a period of 10 min (Acquisition Trial). The objects used in this experiment were rectangular plastic cases. […] Rats were then returned to their home cage for an inter-trial interval (ITI) of 1.5 h and the entire box was cleaned. Then one was replaced with an identical familiar copy and one was replaced with a novel object. Following the ITI, rats were returned to the apparatus and allowed to explore the familiar and novel objects in the test box for a 10-min retention trial (Retention Trial). All experiments were monitored by TopScan monitoring system[39].

[6] = target: human 5-HT2A receptor (Homo sapiens, UniProt P28223); assay: Radioligand binding assay, 5-HT2A receptor; details: radioligand displacement, transfected HEK-293 cells; read-out: Receptor binding affinity (Ki), 5-HT2A
Sequence of human 5-HT2A receptor (P28223 whole entry): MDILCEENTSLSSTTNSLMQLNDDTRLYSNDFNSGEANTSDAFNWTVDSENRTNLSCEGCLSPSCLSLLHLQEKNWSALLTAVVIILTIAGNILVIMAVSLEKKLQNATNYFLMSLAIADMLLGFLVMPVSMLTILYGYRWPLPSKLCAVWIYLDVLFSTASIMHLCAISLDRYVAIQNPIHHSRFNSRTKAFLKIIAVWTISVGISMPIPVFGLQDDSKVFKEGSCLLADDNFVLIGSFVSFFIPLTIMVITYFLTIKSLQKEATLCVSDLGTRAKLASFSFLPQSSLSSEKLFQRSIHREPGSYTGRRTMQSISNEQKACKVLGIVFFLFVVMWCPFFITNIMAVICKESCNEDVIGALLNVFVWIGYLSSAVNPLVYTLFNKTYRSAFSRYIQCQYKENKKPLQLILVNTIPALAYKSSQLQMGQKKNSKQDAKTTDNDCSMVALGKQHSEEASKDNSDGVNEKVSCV

[7] = target: T1, human 5-HT2B receptor (Homo sapiens, UniProt P41595); assay: Radioligand binding assay, 5-HT2B receptor; details: radioligand displacement, transfected HEK-293 cells; read-out: Receptor binding affinity (Ki), 5-HT2B
T1 construct: expressed in transfected cells; host or cells: HEK-293
T1 sequence (P41595 whole entry): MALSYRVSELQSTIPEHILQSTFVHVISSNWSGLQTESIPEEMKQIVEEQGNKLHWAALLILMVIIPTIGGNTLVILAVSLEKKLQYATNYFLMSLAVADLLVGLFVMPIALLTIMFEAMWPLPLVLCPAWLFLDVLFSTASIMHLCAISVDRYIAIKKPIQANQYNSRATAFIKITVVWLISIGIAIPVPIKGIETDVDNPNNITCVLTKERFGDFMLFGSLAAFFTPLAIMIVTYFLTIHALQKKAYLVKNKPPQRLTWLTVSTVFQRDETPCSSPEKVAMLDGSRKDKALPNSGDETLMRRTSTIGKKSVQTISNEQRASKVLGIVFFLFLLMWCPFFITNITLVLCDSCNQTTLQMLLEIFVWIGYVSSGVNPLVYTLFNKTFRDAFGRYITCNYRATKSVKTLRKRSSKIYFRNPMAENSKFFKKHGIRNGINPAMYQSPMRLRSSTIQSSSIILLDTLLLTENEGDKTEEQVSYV
Procedure: (§1) The affinity of compounds for the human dopamine D2, D3, D4, 5-HT2A, 5-HT2B, 5-HT2C, 5-HT6, 5-HT7, H1, α1A, and α1B receptors in transfected HEK-293 cells was determined using a radioligand binding assay. Cell membrane homogenates were incubated in the absence or presence of the test compound in a buffer. Nonspecific binding was measured in the presence of the standard reference compound. Following incubation, samples were rapidly filtered under a vacuum through glass fibre filters (GF/B, Packard) presoaked with 0.3% PEI and rinsed several times with ice-cold 50 mM Tris-HCl using a 96-sample cell harvester (Unifilter, Packard). Filters were dried and then radioactivity was counted in a scintillation counter (Topcount, Packard) using a scintillation cocktail (Microscint 0, Packard). The results are expressed as percent inhibition of the specific binding of the radioligand in the control. The standard reference compound was tested in each experiment at several concentrations to obtain a competition curve from which its Ki was calculated.

[8] = target: T2, human 5-HT2C receptor (Homo sapiens, UniProt P28335); assay: Radioligand binding assay, 5-HT2C receptor; details: radioligand displacement, transfected HEK-293 cells; read-out: Receptor binding affinity (Ki), 5-HT2C
T2 construct: expressed in transfected cells; host or cells: HEK-293
T2 sequence (P28335 33-458): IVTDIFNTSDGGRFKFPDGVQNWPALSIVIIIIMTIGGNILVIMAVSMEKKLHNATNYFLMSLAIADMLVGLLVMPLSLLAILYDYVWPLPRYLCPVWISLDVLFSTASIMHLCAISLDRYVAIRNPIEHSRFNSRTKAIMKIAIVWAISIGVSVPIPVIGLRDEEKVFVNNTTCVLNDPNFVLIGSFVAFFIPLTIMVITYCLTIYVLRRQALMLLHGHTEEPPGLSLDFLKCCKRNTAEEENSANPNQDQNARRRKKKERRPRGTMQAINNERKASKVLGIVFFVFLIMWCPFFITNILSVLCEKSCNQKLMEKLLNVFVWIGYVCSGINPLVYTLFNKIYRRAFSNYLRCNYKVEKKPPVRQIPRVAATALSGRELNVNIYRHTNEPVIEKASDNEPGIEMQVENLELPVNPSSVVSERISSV
Procedure: as §1

[9] = target: T3, human 5-HT6 receptor (Homo sapiens, UniProt P50406); assay: Radioligand binding assay, 5-HT6 receptor; details: radioligand displacement, transfected HEK-293 cells; read-out: Receptor binding affinity (Ki), 5-HT6
T3 construct: expressed in transfected cells; host or cells: HEK-293
T3 sequence (P50406 whole entry): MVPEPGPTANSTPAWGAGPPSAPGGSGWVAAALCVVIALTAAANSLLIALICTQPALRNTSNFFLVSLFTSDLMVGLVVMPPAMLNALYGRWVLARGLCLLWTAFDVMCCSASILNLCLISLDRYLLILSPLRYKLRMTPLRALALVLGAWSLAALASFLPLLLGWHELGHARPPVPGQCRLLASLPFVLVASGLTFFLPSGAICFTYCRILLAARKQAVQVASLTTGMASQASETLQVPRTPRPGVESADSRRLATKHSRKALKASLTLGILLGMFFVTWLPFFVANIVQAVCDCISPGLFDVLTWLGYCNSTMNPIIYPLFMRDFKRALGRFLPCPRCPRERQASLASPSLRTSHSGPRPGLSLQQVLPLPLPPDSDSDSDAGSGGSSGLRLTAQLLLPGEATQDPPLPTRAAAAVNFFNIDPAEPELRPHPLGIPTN
Procedure: as §1

[10] = target: T4, human 5-HT7 receptor (Homo sapiens, UniProt P34969); assay: Radioligand binding assay, 5-HT7 receptor; details: radioligand displacement, transfected HEK-293 cells; read-out: Receptor binding affinity (Ki), 5-HT7
T4 construct: expressed in transfected cells; host or cells: HEK-293
T4 sequence (P34969 whole entry): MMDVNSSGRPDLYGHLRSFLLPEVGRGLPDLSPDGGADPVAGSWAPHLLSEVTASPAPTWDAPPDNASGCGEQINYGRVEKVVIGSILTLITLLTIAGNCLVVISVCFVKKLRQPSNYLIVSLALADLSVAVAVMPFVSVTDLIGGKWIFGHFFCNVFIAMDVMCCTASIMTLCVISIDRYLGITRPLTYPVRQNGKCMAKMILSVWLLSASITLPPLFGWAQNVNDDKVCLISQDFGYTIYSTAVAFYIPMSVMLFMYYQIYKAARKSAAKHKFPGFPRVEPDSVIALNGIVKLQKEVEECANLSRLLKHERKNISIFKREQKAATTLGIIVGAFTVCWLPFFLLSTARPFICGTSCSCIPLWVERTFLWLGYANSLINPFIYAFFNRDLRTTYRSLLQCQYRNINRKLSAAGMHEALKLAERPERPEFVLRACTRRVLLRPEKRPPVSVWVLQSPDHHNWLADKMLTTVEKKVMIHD
Procedure: as §1

[11] = target: T5, human α1A receptor (Homo sapiens, UniProt P35348); assay: Radioligand binding assay, α1A receptor; details: radioligand displacement, transfected HEK-293 cells; read-out: Receptor binding affinity (Ki), α1A
T5 construct: expressed in transfected cells; host or cells: HEK-293
T5 sequence (P35348 1-466): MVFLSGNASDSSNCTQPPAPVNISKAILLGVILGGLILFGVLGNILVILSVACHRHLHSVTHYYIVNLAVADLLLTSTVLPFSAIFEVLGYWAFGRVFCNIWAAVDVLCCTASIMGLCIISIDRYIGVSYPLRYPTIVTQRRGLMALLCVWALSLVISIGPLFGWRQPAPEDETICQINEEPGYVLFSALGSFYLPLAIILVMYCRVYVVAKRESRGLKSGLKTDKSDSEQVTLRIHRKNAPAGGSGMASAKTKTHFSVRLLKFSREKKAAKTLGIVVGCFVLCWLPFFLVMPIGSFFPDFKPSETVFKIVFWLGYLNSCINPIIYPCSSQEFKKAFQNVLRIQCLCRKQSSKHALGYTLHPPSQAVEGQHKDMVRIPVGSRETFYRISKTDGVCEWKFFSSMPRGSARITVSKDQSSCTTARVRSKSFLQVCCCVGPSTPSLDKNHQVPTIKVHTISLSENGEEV
Procedure: as §1

[12] = target: T6, human α1B receptor (Homo sapiens, UniProt P35368); assay: Radioligand binding assay, α1B receptor; details: radioligand displacement, transfected HEK-293 cells; read-out: Receptor binding affinity (Ki), α1B
T6 construct: expressed in transfected cells; host or cells: HEK-293
T6 sequence (P35368 1-520): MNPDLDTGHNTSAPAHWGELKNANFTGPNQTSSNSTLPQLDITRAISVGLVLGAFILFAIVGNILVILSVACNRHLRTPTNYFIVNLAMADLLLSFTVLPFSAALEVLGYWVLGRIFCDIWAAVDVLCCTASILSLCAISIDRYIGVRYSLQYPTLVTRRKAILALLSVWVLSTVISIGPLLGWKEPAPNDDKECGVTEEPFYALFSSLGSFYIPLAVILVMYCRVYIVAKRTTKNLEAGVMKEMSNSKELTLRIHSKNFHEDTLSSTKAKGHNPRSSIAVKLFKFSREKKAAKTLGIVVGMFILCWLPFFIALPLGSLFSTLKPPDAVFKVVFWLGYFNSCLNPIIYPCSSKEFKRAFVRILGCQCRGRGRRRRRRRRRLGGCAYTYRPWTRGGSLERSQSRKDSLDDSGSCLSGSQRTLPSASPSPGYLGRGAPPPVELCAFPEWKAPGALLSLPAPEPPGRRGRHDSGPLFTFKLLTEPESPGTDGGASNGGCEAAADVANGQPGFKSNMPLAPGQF
Procedure: as §1

[13] = target: T7, human H1 receptor (Homo sapiens, UniProt P35367); assay: Radioligand binding assay, H1 receptor; details: radioligand displacement, transfected HEK-293 cells; read-out: Receptor binding affinity (Ki), H1
T7 construct: expressed in transfected cells; host or cells: HEK-293
T7 sequence (P35367 whole entry): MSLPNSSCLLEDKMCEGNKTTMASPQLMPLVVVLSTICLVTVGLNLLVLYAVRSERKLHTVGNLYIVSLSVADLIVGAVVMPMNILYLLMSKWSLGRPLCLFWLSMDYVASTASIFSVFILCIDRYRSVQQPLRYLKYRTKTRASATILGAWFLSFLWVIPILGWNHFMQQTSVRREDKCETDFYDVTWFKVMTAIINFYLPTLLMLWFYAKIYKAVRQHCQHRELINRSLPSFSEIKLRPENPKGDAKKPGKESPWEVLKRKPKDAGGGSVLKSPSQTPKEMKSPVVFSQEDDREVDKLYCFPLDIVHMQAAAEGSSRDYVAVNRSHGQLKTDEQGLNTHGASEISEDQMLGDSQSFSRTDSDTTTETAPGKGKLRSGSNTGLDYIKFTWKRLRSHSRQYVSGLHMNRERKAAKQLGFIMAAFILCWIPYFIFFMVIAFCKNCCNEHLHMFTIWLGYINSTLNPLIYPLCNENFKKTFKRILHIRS
Procedure: as §1

[14] = tested on: mice; assay: Forelimb catalepsy in mice; details: NIH, mouse, in vivo, po, 1 h
Procedure: Then each mouse was positioned such that both front paws rested on a […] diameter steel rod (covered with non-slippery tape) placed 3.5 cm above the surface of the bench. The period of time that each mouse maintained this position was recorded. The experiment was repeated at least 10 times. Finally, the longest period of catalepsy for each mouse was recorded.

[15] = tested on: plasma prolactin; assay: Plasma prolactin levels in rats (ELISA); format: in vivo; details: 0.2 mg/kg for 28 days, mean ± S.E.M.
Procedure: […]. Plasma prolactin levels were assessed using a commercially available Prolactin ELISA (Mouse/Rat) purchased from GenWay, according to the manufacturer’s instructions. Plasma TC and triglyceride levels were assessed using a Roche automatic biochemical analyser Cobas c 311.

[16] = Body weight of rats after 28 days of dosing; format: in vivo; details: 0.2 mg/kg for 28 days, mean ± S.E.M.
[17] = […] oral 1 h before test, MK-801 0.3 mg/kg i.p.
[18] = […] oral 1 h before test, 5-HTP 320 mg/kg i.p., 40–70 min after injection
[19] = […] oral 1 h before test, MK-801 0.2 mg/kg i.p.

N[C@@H](Cc1c[nH]c2ccc(O)cc12)C(=O)O [5-HTP, reference compound]
number of head twitches ([1]; 5-HTP 320 mg/kg i.p. with vehicle (model group)): 52.5 ± 2.57

O=C1CCc2ccc(OCCCCN3CCN(c4cccc(Cl)c4Cl)CC3)cc2N1 [Aripiprazole, reference compound]
distance travelled [2, 17]: 1957 ± 455.1 mm | number of head twitches [1, 18]: 31.5 ± 3.12 | escape latency [3, 19]: 21.71 ± 0.86 s | escape latency ([4]; […] oral for 28 days, MK-801 0.3 mg/kg i.p. day 15–28, mean ± S.E.M.): 31.83 ± 5.00 s

C[C@]12N[C@H](Cc3ccccc31)c1ccccc12 [MK-801, reference compound]
distance travelled ([2]; MK-801 0.3 mg/kg i.p. with vehicle (model group)): 4933 ± 275.6 mm | escape latency ([3]; MK-801 0.2 mg/kg i.p. with vehicle (model group)): 35.67 ± 4.05 s | escape latency ([4]; MK-801 0.3 mg/kg i.p. day 15–28 with vehicle (model group), mean ± S.E.M.): 25.56 ± 4.36 s | Discrimination Index (DI) [5]: 0.51 ± 0.04

O=C1COc2ccc(OCCCCN3CCN(c4cccc(Cl)c4Cl)CC3)cc2N1 [PCC0104005]
Ki [6]: 5.1 nM | Ki [7]: 0.34 nM | Ki [8]: 36 nM | Ki [9]: 85 nM | Ki [10]: 5 nM | Ki [11]: 8.3 nM | Ki [12]: 3.2 nM | Ki [13]: 1.1 nM | distance travelled ([2]; 3.0 mg/kg oral 1 h before test, MK-801 0.3 mg/kg i.p.): 2646 ± 235.2 mm | distance travelled ([2]; 6.0 mg/kg oral 1 h before test, MK-801 0.3 mg/kg i.p.): 2655 ± 286.5 mm | distance travelled [2, 17]: 3284 ± 220.7 mm | distance travelled (spontaneous activity) ([2]; administered alone without MK-801, dose not stated): 1885 ± 269.7 mm | number of head twitches ([1]; 3.0 mg/kg oral 1 h before test, 5-HTP 320 mg/kg i.p., 40–70 min after injection): 24.86 ± 4.35 | number of head twitches ([1]; 6.0 mg/kg oral 1 h before test, 5-HTP 320 mg/kg i.p., 40–70 min after injection): 10.71 ± 4.81 | number of head twitches [1, 18]: 20.17 ± 2.70 | escape latency ([3]; 3.0 mg/kg oral 1 h before test, MK-801 0.2 mg/kg i.p.): 18.35 ± 2.76 s | escape latency ([3]; 6.0 mg/kg oral 1 h before test, MK-801 0.2 mg/kg i.p.): 17.45 ± 1.78 s | escape latency [3, 19]: 20.60 ± 1.30 s | escape latency ([4]; 3.0 mg/kg oral for 28 days, MK-801 0.3 mg/kg i.p. day 15–28, mean ± S.E.M.): 11.45 ± 2.70 s | escape latency ([4]; 6.0 mg/kg oral for 28 days, MK-801 0.3 mg/kg i.p. day 15–28, mean ± S.E.M.): 14.88 ± 2.95 s | forelimb catalepsy duration (longest) ([14]; 2 mg/kg): 22.56 ± 2.65 s | forelimb catalepsy duration (longest) ([14]; 4 mg/kg): 25.89 ± 3.59 s | forelimb catalepsy duration (longest) ([14]; 8 mg/kg): 21.23 ± 2.53 s

Cc1nc2n(c(=O)c1CCN1CCC(c3noc4cc(F)ccc34)CC1)CCCC2 [Risperidone, reference compound]
distance travelled ([2]; 0.2 mg/kg oral 1 h before test, MK-801 0.3 mg/kg i.p.): 1886 ± 437.3 mm | number of head twitches ([1]; 0.2 mg/kg oral 1 h before test, 5-HTP 320 mg/kg i.p., 40–70 min after injection): 9 ± 1.73 | escape latency ([3]; 0.2 mg/kg oral 1 h before test, MK-801 0.2 mg/kg i.p.): 20.71 ± 2.18 s | escape latency ([4]; 0.2 mg/kg oral for 28 days, MK-801 0.3 mg/kg i.p. day 15–28, mean ± S.E.M.): 11.81 ± 3.06 s | plasma prolactin level [15]: 5.67 ± 0.51 ng/mL | body weights [16]: 116.4 ± 10.51 g
